The source of these data is patent US10336757B2, “Treatment of neurodegenerative diseases through inhibition of HSP90” (Sloan-Kettering Institute for Cancer Research, priority 2006, dated 2019).

Molecules are shown by their SMILES. Like-named read-outs stand apart in the source and are kept apart here.

The subject of one series is p35. The series can be described thus: p35, Tau phosphorylation and Hsp70 in primary rat cortical neurons and COS-7/p35, COS-7/p35/Tau cells. The class given is cell-based. Conditions: compared with PU24FC1. An excerpt:
Embryonic primary rat cortical neurons and COS-7 cells transfected with cDNAs corresponding to either p35 alone (COS-7/p35) or both p35 and Tau (COS-7/p35/Tau) are relevant experimental systems to study aberrant neuronal kinase activity because phosphorylation of Tau at putative cdk5 sites is both enhanced in these cells and in embryonic and juvenile brains (50, 52) and is similar to that in AD-afflicted brains (50). […]
To further examine the roles played by Hsp90 in tauopathy, we made use of both PU24FC1 and 17-(allyllamino)-17-demethoxygeldanamycin (17AAG) and investigated their effects on both cdk5/p35 and TauP301L in primary neuronal and COS-7 cell cultures. […] After incubation, cells were harvested and lysed in 2% SDS, and the resulting samples were analyzed by Western blotting.
We detected a dose- and time-dependent degradation of p35 by PU24FC1 in primary neurons, as well as in COS-7/p35 and COS-7/p35/Tau cells. […] Reduction of p35 levels by Hsp90 inhibition affected the activity of the cdk5/p35 complex, as measured using a substrate of cdk5, the histone-H1.

The target of a further series is P-glycoprotein (Homo sapiens (Human), UniProt P08183). Conditions: known Hsp90 inhibitor, cited from earlier work.
For series [1] the following is noted: known Hsp90 inhibitors, cited from earlier work.
The conditions of series [2]: cited from earlier work.
Series [3] has as its system tau phosphorylation at pathological sites. In words: Tau phosphorylation in AD cellular models. The class given is cell-based.

Chain of P-glycoprotein (P08183 whole entry): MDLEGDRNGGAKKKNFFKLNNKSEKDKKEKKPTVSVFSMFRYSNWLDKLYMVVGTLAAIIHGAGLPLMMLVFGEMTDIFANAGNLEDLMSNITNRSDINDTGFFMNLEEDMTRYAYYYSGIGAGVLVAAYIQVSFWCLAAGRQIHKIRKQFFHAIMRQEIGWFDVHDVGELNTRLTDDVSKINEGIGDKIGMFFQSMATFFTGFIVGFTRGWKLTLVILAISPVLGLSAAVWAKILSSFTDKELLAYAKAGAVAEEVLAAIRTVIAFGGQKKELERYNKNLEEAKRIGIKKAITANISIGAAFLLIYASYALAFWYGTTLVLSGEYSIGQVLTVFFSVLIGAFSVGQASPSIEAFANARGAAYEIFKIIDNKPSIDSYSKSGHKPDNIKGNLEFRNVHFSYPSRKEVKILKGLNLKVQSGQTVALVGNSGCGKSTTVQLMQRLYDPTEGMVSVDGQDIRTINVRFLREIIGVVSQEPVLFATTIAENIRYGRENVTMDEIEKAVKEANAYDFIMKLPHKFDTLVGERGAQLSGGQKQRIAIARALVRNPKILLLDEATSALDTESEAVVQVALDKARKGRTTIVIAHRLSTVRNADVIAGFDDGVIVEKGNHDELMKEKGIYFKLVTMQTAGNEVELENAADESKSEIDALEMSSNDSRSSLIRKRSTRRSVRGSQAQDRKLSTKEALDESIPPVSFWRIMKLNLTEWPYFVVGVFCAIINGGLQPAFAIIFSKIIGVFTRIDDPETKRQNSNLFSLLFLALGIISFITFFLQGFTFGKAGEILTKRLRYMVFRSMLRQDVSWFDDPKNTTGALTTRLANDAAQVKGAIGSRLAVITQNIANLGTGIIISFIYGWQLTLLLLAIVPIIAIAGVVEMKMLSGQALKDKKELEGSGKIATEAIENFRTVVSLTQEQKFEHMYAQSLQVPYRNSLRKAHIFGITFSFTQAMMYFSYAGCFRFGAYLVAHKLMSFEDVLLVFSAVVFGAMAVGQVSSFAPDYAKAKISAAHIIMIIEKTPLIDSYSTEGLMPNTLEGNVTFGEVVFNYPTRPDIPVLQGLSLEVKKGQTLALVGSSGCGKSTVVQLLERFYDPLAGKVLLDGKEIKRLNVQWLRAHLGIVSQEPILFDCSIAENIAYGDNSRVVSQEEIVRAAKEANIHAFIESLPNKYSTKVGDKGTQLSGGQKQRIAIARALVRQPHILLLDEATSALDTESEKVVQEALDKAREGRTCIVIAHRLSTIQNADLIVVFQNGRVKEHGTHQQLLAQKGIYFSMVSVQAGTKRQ

With `C=CCNC1=C2C[C@@H](C)C[C@H](OC)[C@H](O)[C@@H](C)/C=C(\C)[C@H](OC(N)=O)[C@@H](OC)/C=C\C=C(/C)C(=O)NC(=CC1=O)C2=O` [Compound 17AAG, 17-(allyllamino)-17-demethoxygeldanamycin], in the series with p35, the “effects on p35 and mTau” value is on record as “Analogous effects”. For the same compound, the values for the P-gp substrate result on P-glycoprotein and on P-glycoprotein (listed as 17-AAG) were “P-gp substrate” and “P-glycoprotein substrate”, respectively. Besides, the entries for the “crossing of the blood-brain barrier” value in series [1] and in series [1] (listed as 17-AAG) were “do not cross the blood-brain barrier” and “does not effectively cross the blood brain barrier”, respectively. Also, the solubility entry in series [2] is recorded as “poorly soluble”.
Regarding `COC1=C2C[C@@H](C)C[C@H](OC)[C@H](O)[C@@H](C)/C=C(\C)[C@H](OC(N)=O)[C@@H](OC)/C=C\C=C(/C)C(=O)NC(=CC1=O)C2=O` [geldanamycin], the “tau phosphorylation levels at pathological sites” value in series [3] is listed as “reduced”. The “crossing of the blood-brain barrier” value in series [1] is on record as “do not cross the blood-brain barrier”. The solubility result in series [2] was “poorly soluble”.
On to `C[C@@H]1C[C@H]2O[C@@H]2/C=C\C=C\C(=O)Cc2c(Cl)c(O)cc(O)c2C(=O)O1` [radicicol], for which, in series [1], the “crossing of the blood-brain barrier” value is “do not cross the blood-brain barrier”. The solubility result in series [2] was “poorly soluble”.
